Experimental data: patent publication US9404082B2, “Method for production of eosinophil from pluripotent stem cell” (KYOTO UNIVERSITY, priority 2010, dated 2016)

Test system: ES cell (H1)-derived eosinophils
Experiment: Measurement of migratory capacity (Transwell)
Format: cell-based, human
Conditions: 1640 medium with 5% FBS, 1 to 2 hours, IL-5 0.2-25 ng/ml, Eotaxin 0.4-250 nM, fMLP 10 pM-100 nM, FIG. 3
Protocol: Eosinophils established from ES cells (H1) by the above method were transferred to Transwell, and 1640 medium supplemented with 5% FBS was added thereto. IL-5 (0.2 ng/ml to 25 ng/ml), Eotaxin (0.4 nM to 250 nM) and fMLP (10 pM to 100 nM) at various concentrations were added thereto, and culture was performed for 1 to 2 hours. Thereafter, the number of cells migrated from the top layer to the bottom layer was measured (FIG. 3).

Question: Which “number of cells migrated from the top layer to the bottom layer” value (shortened to “number of cells migrated”) does the source give for “IL-5: cytokine used to stimulate eosinophil migration” here?
Answer: migrate in response to the respective types of stimulation

Question: Which “number of cells migrated” value does the source give for “Eotaxin: cytokine used to stimulate eosinophil migration” here?
Answer: migrate in response to the respective types of stimulation

Question: How did the “number of cells migrated” value turn out when fMLP was run?
Answer: migrate in response to the respective types of stimulation
